Experimental data reported in patent publication US12115158B2, “Survivin-targeting anti-tumor agents and uses thereof” (Indiana University Research and Technology Corporation, priority 2020, dated 2024).
Entries after “also recorded” stand apart in the source; their conditions may differ. Read-outs that look alike come from different tables or passages of the source.

What was measured:
PC-3 = details: MTT assay; data from the previous study [12]; cited from earlier work
C4-2 cells [1] = test: Methylene blue survival assay; assay type: cell-based; details: Homo sapiens, 72-hr treatment
Experimental: (§1) Methylene blue survival assay. Prostate cancer cells were seeded 2000-3500 per well (cell line dependent) and treated with LQZ-7-3 for 72 hours. After 72 hours, media was then removed and cells were fixed with methanol for 30 minutes and subsequently stained with 100 μL of 1% methylene blue (diluted in 10 mM borate buffer) for 1 hour. The cells were then washed 3× with 10 mM borate buffer and then allowed to air dry for 30 minutes. 100 μL of 100% ethanol:0.1 M HCl (1:1) was added to each well to dissolve the methylene blue stain and absorbance was measured via spectrometry at […]. After normalization to DMSO controls, the percent viabilities were graphed and IC50 concentrations were determined using Prism.
(§2) LQZ-7I has enhanced cytotoxicity compared to the parent compound LQZ-7. These five newly synthesized LQZ-7 analogs were first tested for their cytotoxicity against prostate cancer cell lines C4-2 and PC-3 in comparison with their parent compound LQZ-7 using methylene blue assay. […] The other compounds performed worse with higher IC50 compared with LQZ-7.

PC-3 cells [2] = test: Methylene blue survival assay; assay type: cell-based; details: Homo sapiens, 72-hr treatment
Experimental: as §1, §2

[3] = test system: stable C4-2 cells over expressing survivin; test: Methylene blue assay in survivin overexpression cells; assay type: cell-based; details: Homo sapiens; stable C4-2 clone, HA-tagged survivin; read-out: IC50, survivin over-expression
Experimental: as §1
(§3) Survivin overexpression decreases cellular sensitivity to 7I. To corroborate above findings and to further investigate 7I inhibition of cancer cell survival via survivin, we generated a stable C4-2 clone with overexpression of HA-tagged survivin (FIG. 13D) and tested the effect of survivin over-expression on 7I cytotoxicity. […] Thus, 7I likely works via inhibiting survivin.
(§4) LQZ-7F-1 Cytotoxicity in Survivin Overexpression Cells. To determine if survivin overexpressing cells have a decreased sensitivity to LQZ-7F-1, C4-2 survivin stable overexpressing cells were once again used in a cell cytotoxicity assay.

CIAP2 = CIAP2 (Homo sapiens, UniProt Q13489); test: IAP family member degradation assay; assay type: cell-based; details: C4-2 and PC-3 cells, Western blot
Experimental: (§5) Survivin mammalian two hybrid assay. […] Each condition was tested in triplicate. […] IAP family member degradation assay.
(§6) Selectivity of 7I. […] To ensure 7I is selective to survivin, we tested its effect on other members of the IAP family by taking advantage of its induction of target loss. For this purpose, we performed Western blot analysis to determine the expression level of other IAPs including XIAP, CIAP1, and CIAP2 in addition to survivin following 7I treatment of C4-2 and PC-3 cells. […] However, it had no effect on the expression of XIAP, CIAP1, and CIAP2. Thus, 7I may be selective to its intended target survivin. 7I induces survivin degradation in a proteasome-dependent manner. […] Because 7I inhibited survivin dimerization as shown above, we hypothesized that 7I will also induce survivin degradation. To test this hypothesis, we examined survivin expression level in C4-2 and PC-3 cells following 7I treatments. […] We next performed a cycloheximide-chase experiment following 7I treatment to determine the half-life of survivin. […] Thus, 7I induces survivin degradation in both cell lines.

XIAP = XIAP (Homo sapiens, UniProt P98170); test: IAP family member degradation assay; assay type: cell-based; details: C4-2 and PC-3 cells, Western blot
Experimental: as §5, §6

CIAP1 = CIAP1 (Homo sapiens, UniProt Q13490); test: IAP family member degradation assay; assay type: cell-based; details: C4-2 and PC-3 cells, Western blot
Experimental: as §5, §6

survivin [4] = target: T1, survivin (Homo sapiens, UniProt O15392); test: Survivin level by Western blot in prostate cancer cells; details: C4-2 and PC-3 cells
Experimental: IAP family member degradation assay. For this experiment C4-2 or PC-3 cells were plated in a 10 cm dish at 1×10^6 cells per dish. 24 hours later the media was changed and cells were treated with DMO or LQZ-7-3. After 48 hours the cells were harvested, washed in PBS, and IAP family members level were evaluated using specific antibodies and Western Blotting.

Solubility in corn oil = assay type: physicochemical
survivin [5] = target: T1, survivin; test: Proteasome inhibitors study (rescue of survivin loss); assay type: cell-based; design: we examined survivin expression level in C4-2 and PC-3 cells following 7I treatments; endogenous in cells; host or cells: PC-3, C4-2; details: PC-3 and C4-2 cells
Experimental: Proteasome Inhibitors Study. For the proteasome inhibitor rescue experiment, PC3 and C4-2 cells were seeded in 10-cm dishes at 8×10^5 cells/dish and cultured for 48 hours followed by replacement with fresh media containing DMSO control, 7 μmol/L MG132, or 70 nmol/L bortezomib and incubation for 2 hours. LQZ-7-3 was then added to the culture to final concentrations of 10 uM respectively and incubated for additional 24 hours. The cells were then harvested used for Western blot analysis of survivin.
To determine if 7I-induced survivin degradation occurs in proteasome, we performed a rescue experiment by pre-treating cells using proteasome inhibitors MG132 and bortezomib for 1 hr prior to 7I treatment. […] Thus, 7I likely induces survivin degradation via proteasome. 7I induces apoptosis. It has been shown previously that depleting survivin or inhibiting survivin using dominant negative forms of survivin cause spontaneous apoptosis in cancer cells (ref) and that the parent compound LQZ-7 also induces apoptosis. We next tested if 7I would induce apoptosis by inhibiting survivin. For this purpose, we first performed Western blot analysis of cleaved caspase 3 in C4-2 and PC-3 cells following 7I treatments. […] We next determined if 7I is active in suppressing tumor growth in vivo using a PC-3 xenograft model. […]

cleaved caspase 3 = test: Western blot analysis of cleaved caspase 3; assay type: cell-based, human; details: C4-2 and PC-3 cells
Excerpt: To determine if 7I-induced survivin degradation occurs in proteasome, we performed a rescue experiment by pre-treating cells using proteasome inhibitors MG132 and bortezomib for 1 hr prior to 7I treatment. […] Thus, 7I likely induces survivin degradation via proteasome. 7I induces apoptosis. It has been shown previously that depleting survivin or inhibiting survivin using dominant negative forms of survivin cause spontaneous apoptosis in cancer cells (ref) and that the parent compound LQZ-7 also induces apoptosis. We next tested if 7I would induce apoptosis by inhibiting survivin. For this purpose, we first performed Western blot analysis of cleaved caspase 3 in C4-2 and PC-3 cells following 7I treatments. […] We also performed annexin V staining of C4-2 and PC-3 cells as another indicator of apoptosis following 7I treatments. […] 7I inhibits growth of PC-3 xenograft tumors by inhibiting survivin. We next determined if 7I is active in suppressing tumor growth in vivo using a PC-3 xenograft model. […] The xenograft tumors in the 7I-treatment group trended to be smaller and pale in color than the control group (FIG. 16C-D). Thus, 7I may be effective in inhibiting tumor growth with little toxicity.
Apoptosis Studies. To determine if LQZ-7F-1 also induces apoptosis of cancer cells Flow Cytometry with Annexin V staining was performed in coordination with the Flow Cytometry Core. […]

[6] = test system: p53-large T antigen dimerization; test: Mammalian two hybrid assay, specificity control; details: same two hybrid assay
Experimental: (§8) Survivin mammalian two hybrid assay. The mammalian two hybrid assay was performed utilizing the ClonTech Matchmaker Mammalian Two Hybrid Assay kit [13]. Briefly, the coding region (˜400 bp) of survivin was cloned in to two different plasmids, the pM plasmid containing the GAL4-DNA Binding Domain and the pVP16 plasmid containing an activation domain. […] These two plasmids (0.45 ug/well) along with the pGSEAP reporter plasmid (0.09 ug/well) and firefly luciferase plasmid (30 ng/well) were co-transfected in to 1×10^5 Du145 cells per well in a 12 well plate. Each condition was tested in triplicate. […] SEAP was detected utilizing the Takara ClonTech SEAP Great Escape chemiluminescence assay kit 2.0 and cells were lysed and luciferase was measured to control for transfection efficiency.

survivin dimerization = survivin dimerization (Homo sapiens, UniProt O15392); test: Survivin mammalian two hybrid assay (SEAP reporter, Du145 cells); assay type: cell-based; details: 24 hours treatment
Experimental: as §8
Dimerization of survivin activates the expression of Secreted Embryonic Alkaline Phosphatase (SEAP) reporter gene, which can be monitored.

C4-2 cells [7] = test: Apoptosis assay (Annexin V flow cytometry); assay type: cell-based, human; details: 3 μM
Experimental: (§7) Survivin Cycloheximide Half-Life Assay. The effect of LQZ-7-3 on survivin half-life was performed as previously described. Briefly, PC-3 or C4-2 cells were pretreated with 10 μmol/L cycloheximide for 1 hour followed by incubation with or without LQZ-7-3 10 uM for different times (0-6 hours). The cells were then harvested for Western Blot analysis for survivin. Apoptosis Assay. The apoptosis assay was performed as detailed in the Anenxin V-FITC kit from BioVision. Briefly, apoptosis was induced by treatment with LQZ-7-3 and cells were collected by centrifugation. Cells were resuspended in 500 ul of 1× binding buffer and 5 ul of annexin V-FITC and 5 ul of propidium iodide (50 ug/ml) was added to the cells. The cells were incubated at room temperature for 5 minutes in the dark then subjected to quantification by flow cytometry.

PC-3 cells [8] = test: Apoptosis assay (Annexin V flow cytometry); assay type: cell-based, human; details: 3 μM
Experimental: as §7

PC-3 xenograft tumors = test: PC-3 xenograft model; assay type: in vivo, NSG male mice
Experimental: PC-3 Xenograft Model. For the in vivo efficacy study, 3×10^6 PC-3 cells in media were implanted in to the hind flanks of 6 week old NSG male mice. After the tumor volume reached approximately […] in volume, the mice were randomized in to two groups (5 mice/group). The mice were either given 200 uL vehicle (90% corn oil/10% DMSO) or LQZ-7-3 100 mg/kg vial oral gavage every other day for a total of ten treatments. Before each treatment mouse bodyweight and tumor volume by caliper was measured. At the end of the study mice were sacrificed, and tumors were extracted for western blot analysis and […] staining of survivin.

C4-2 vector cells = test: Methylene blue assay in vector control cells; assay type: cell-based; details: Homo sapiens; C4-2 vector control; read-out: IC50, vector-transfect control clone
Experimental: as §1, §3, §4

[9] = read-out: IC50 against C4-2 cells
[10] = read-out: IC50 against PC-3 cells

T1 sequence (O15392 whole entry): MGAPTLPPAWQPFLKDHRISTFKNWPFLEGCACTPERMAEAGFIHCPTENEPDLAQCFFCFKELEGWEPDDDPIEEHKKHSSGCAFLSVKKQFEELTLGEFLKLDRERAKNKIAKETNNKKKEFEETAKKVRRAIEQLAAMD
Sequence of survivin dimerization (O15392 whole entry): as above
Sequence of XIAP (P98170 whole entry): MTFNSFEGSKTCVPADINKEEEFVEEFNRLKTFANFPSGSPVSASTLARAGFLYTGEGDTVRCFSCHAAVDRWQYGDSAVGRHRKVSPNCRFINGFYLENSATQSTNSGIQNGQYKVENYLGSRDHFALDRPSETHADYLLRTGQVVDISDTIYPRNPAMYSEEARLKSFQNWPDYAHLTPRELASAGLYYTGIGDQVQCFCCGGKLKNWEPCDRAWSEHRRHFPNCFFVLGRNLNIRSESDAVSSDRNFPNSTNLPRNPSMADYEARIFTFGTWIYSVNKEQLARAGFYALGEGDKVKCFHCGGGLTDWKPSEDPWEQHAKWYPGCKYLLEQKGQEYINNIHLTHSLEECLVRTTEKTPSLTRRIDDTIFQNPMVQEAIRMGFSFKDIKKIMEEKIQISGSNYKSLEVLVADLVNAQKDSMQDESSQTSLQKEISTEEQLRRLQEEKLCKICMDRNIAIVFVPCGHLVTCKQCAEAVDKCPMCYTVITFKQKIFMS
Sequence of CIAP1 (Q13490 whole entry): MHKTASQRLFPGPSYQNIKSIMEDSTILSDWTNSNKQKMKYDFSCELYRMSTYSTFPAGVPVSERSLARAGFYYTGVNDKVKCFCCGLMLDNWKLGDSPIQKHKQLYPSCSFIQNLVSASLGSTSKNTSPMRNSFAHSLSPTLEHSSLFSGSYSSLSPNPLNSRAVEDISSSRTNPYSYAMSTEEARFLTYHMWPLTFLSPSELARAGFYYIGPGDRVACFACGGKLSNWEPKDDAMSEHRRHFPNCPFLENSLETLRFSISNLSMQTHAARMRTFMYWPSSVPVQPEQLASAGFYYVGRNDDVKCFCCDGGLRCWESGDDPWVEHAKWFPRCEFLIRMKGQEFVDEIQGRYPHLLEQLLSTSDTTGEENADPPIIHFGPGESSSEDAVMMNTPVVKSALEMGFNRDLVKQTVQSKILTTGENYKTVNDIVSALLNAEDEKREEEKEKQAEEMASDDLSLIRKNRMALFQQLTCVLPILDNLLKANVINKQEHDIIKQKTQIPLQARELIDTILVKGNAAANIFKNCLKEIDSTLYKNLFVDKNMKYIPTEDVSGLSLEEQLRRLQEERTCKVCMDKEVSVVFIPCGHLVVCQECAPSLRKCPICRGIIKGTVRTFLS
Sequence of CIAP2 (Q13489 whole entry): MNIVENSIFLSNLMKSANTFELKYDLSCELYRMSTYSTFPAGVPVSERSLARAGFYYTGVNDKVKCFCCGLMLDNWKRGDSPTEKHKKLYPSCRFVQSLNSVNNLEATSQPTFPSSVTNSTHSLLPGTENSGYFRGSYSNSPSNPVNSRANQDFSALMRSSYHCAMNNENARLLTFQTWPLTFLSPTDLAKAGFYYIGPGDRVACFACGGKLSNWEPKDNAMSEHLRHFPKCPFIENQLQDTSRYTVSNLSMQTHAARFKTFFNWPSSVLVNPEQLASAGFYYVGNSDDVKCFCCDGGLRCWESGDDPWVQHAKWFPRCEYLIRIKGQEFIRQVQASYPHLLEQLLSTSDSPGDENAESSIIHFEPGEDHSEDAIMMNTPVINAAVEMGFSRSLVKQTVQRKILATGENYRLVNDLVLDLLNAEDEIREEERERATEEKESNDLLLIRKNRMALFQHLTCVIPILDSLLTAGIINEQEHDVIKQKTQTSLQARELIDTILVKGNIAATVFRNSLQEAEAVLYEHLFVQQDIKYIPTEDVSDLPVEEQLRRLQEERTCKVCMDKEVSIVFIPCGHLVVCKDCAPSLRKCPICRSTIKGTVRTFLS

In the case of Cc1cccc(Nc2nc3nonc3nc2N/N=C/c2ccc(-c3ccc(Cl)c([N+](=O)[O-])c3)o2)c1C [LQZ-7A], the IC50 (PC-3) is listed as 7.2 ± 2.7 µM.

In the case of Cc1ccc(-c2ccc(/C=N/Nc3nc4nonc4nc3Nc3cccc(Br)c3)o2)cc1Cl [LQZ-7B], the IC50 (PC-3) is listed as 3.3 ± 0.2 µM.

In the case of CCOC(=O)c1ccc(Nc2nc3nonc3nc2N/N=C/c2c[nH]nc2-c2ccccc2)cc1 [LQZ-7C], the IC50 (PC-3) is listed as 3.5 µM.

For Cc1cccc(Nc2nc3nonc3nc2N/N=C/c2cc3c(cc2[N+](=O)[O-])OCO3)c1C [LQZ-7D], the IC50 (PC-3) is listed as 2.6 ± 0.3 µM.

O=C(Nc1nc2ccccc2nc1Nc1ccc(F)cc1)c1ccc2c(c1)OCO2 [LQZ-7G, N-(3-((4-fluorophenyl)amino)quinoxalin-2-yl)benzo[d][1,3]dioxole-5-carboxamide] showed an IC50 (C4-2 cells [1]; read-out: IC50 (μm) C4-2) of 14.3 µM and an IC50 (PC-3 cells [2]; read-out: IC50 (μm) PC-3) of 20.7 µM.

Compound O=C(Nc1nc2ccccc2nc1Nc1ccc(F)cc1)c1ccccc1 [LQZ-7H, N-(3-((4-fluorophenyl)amino)quinoxalin-2-yl)benzamide] has an IC50 (C4-2 cells [1]; read-out: IC50 (μm) C4-2) of 12.7 µM and an IC50 (PC-3 cells [2]; read-out: IC50 (μm) PC-3) of 19.7 µM.

For Fc1ccc(Nc2nc3ccccc3nc2Nc2ccc(F)cc2)cc1 [LQZ-7I, N^2,N^3-bis(4-fluorophenyl)quinoxaline-2,3-diamine], the IC50 [3] was roughly 7 µM, the IC50 (C4-2 cells [1]; read-out: IC50 (μm) C4-2) was 3.1 µM and the IC50 (C4-2 cells [1]; [9]) was 3.1 µM. For the same compound, the IC50 (PC-3 cells [2]; read-out: IC50 (μm) PC-3) was 4.8 µM, the IC50 (PC-3 cells [2]; [10]) was 4.8 µM and the “expression of CIAP2” value (CIAP2) was “no effect”. For the same compound, the “expression of XIAP” value (XIAP) was “no effect”, the “expression of CIAP1” value (CIAP1) was “no effect” and the “survivin expression level after treatment” value (survivin [4]) was “reduced; also recorded: time-dependent survivin loss”. The “solubility in corn oil” value (Solubility in corn oil) was “soluble”, the “compound-induced survivin loss after pretreatment with proteasome inhibitors MG132 and bortezomib” value (survivin [5]) was “significantly reversed” and the “cleaved caspase 3 levels” value (cleaved caspase 3) was “induced cleavage of caspase 3 in a dose dependent manner”. For the same compound, the “p53-large T antigen dimerization” value [6] was “no effect”, the “SEAP reporter expression / survivin dimerization” value (survivin dimerization) was “significantly decreased; also recorded: significantly inhibited” and the “apoptosis (annexin V staining)” value (C4-2 cells [7]) was roughly 48%. For the same compound, the “apoptosis (annexin V staining)” value (PC-3 cells [8]) was roughly 39%, the body weight (PC-3 xenograft tumors; 100 mg/kg oral gavage) was “lacking changes” and the “wet weight of major organs at the end of the study” value (PC-3 xenograft tumors; 100 mg/kg oral gavage) was “lacking changes”. For the same compound, the tumor growth (PC-3 xenograft tumors; 100 mg/kg oral gavage every other day, ten treatments) was “significantly suppressed”, the “survivin expression in xenograft tumors” value (PC-3 xenograft tumors; Western blot and immunofluorescence staining, treatment vs control group) was “drastically reduced” and the IC50 (C4-2 vector cells) was roughly 2 µM.

Compound Cc1cccc(Nc2nc3ccccc3nc2Nc2cccc(C)c2C)c1C [LQZ-7J, N^2,N^3-bis(2,3-dimethylphenyl)quinoxaline-2,3-diamine] has an IC50 (C4-2 cells [1]; read-out: IC50 (μm) C4-2) of 17.6 µM and an IC50 (PC-3 cells [2]; read-out: IC50 (μm) PC-3) of 24.8 µM.

With Cc1cccc(Nc2nc3nonc3nc2N/N=C/c2ccc(-c3cccc(C(=O)O)c3)o2)c1C [LQZ-7] the IC50 (C4-2 cells [1]; read-out: IC50 (μm) C4-2) was 9.1 µM, the IC50 (C4-2 cells [1]; [9]) was 9.1 µM and the IC50 (PC-3 cells [2]; read-out: IC50 (μm) PC-3) was 8.1 µM. The IC50 (PC-3 cells [2]; [10]) was 8.1 µM and the “p53-large T antigen dimerization” value [6] was “no effect”.
